Measurements reported in Sander's compilation of Henry's law constants (doi:10.1093/jxb/48.5.1095).

assay: Henry solubility constant Hcp at 298.15 K (mol/(m3 Pa)); details: reference: Merk and Riederer (1997)

| Structure (SMILES) | Henry solubility constant Hcp |
| --- | --- |
| CC(C)O [2-propanol] | 1.2 |
| CCC(C)(C)O [2-methyl-2-butanol] | 0.7 |
| CCCCC(C)O (stereo not given) [2-hexanol] | 0.48 |
| CCCO [1-propanol] | 1.5 |
| CCCCCO [1-pentanol] | 0.77 |
| CC(C)CO [2-methyl-1-propanol] | 0.78 |
| CCO [ethanol] | 1.9 |
| CCCC(C)O (stereo not given) [2-pentanol] | 0.66 |
| CCC(C)O (stereo not given) [2-butanol] | 0.83 |
| CCCCCCO [1-hexanol] | 0.58 |
